Test results taken from PubChem BioAssay (NCI).
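Tested at 5 concentrations; 48 h exposure; 96-well plates; endpoints linearly interpolated, else capped at highest concentration. GI50 marks 50% less growth. Definition used: TGI = concentration required for complete inhibition of growth.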

Legend:
Assay in all cases: DTP human tumour cell line panel, 48 h
NCI/ADR-RES ovarian = tested on: NCI/ADR-RES ovarian
786-0 renal = tested on: 786-0 renal
SN12C renal = tested on: SN12C renal
SF-295 CNS = tested on: SF-295 CNS
NCI-H23 lung = tested on: NCI-H23 lung
SNB-75 CNS = tested on: SNB-75 CNS
MOLT-4 leukemia = tested on: MOLT-4 leukemia
MCF7 breast = tested on: MCF7 breast
NCI-H522 lung = tested on: NCI-H522 lung
RPMI-8226 leukemia = tested on: RPMI-8226 leukemia
KM12 colon = tested on: KM12 colon
U251 CNS = tested on: U251 CNS
HL-60(TB) leukemia = tested on: HL-60(TB) leukemia
HT29 colon = tested on: HT29 colon
HOP-62 NSCLC = tested on: HOP-62 NSCLC
IGROV1 ovarian = tested on: IGROV1 ovarian
PC-3 prostate = tested on: PC-3 prostate
SK-OV-3 ovarian = tested on: SK-OV-3 ovarian
A498 renal = tested on: A498 renal
DU-145 prostate = tested on: DU-145 prostate
T-47D breast = tested on: T-47D breast
HCT-116 colon = tested on: HCT-116 colon
RXF 393 renal = tested on: RXF 393 renal
HCT-15 colon = tested on: HCT-15 colon
NCI-H226 lung = tested on: NCI-H226 lung
COLO 205 colon = tested on: COLO 205 colon
SNB-19 CNS = tested on: SNB-19 CNS
SR leukemia = tested on: SR leukemia
CAKI-1 renal = tested on: CAKI-1 renal
MDA-MB-435 = tested on: MDA-MB-435
NCI-H460 lung = tested on: NCI-H460 lung
SF-268 CNS = tested on: SF-268 CNS
OVCAR-8 ovarian = tested on: OVCAR-8 ovarian
OVCAR-4 ovarian = tested on: OVCAR-4 ovarian
BT-549 breast = tested on: BT-549 breast
TK-10 renal = tested on: TK-10 renal
CCRF-CEM leukemia = tested on: CCRF-CEM leukemia
EKVX NSCLC = tested on: EKVX NSCLC
UACC-62 melanoma = tested on: UACC-62 melanoma
LOX IMVI melanoma = tested on: LOX IMVI melanoma
OVCAR-3 ovarian = tested on: OVCAR-3 ovarian
OVCAR-5 ovarian = tested on: OVCAR-5 ovarian
HOP-92 NSCLC = tested on: HOP-92 NSCLC
SW-620 colon = tested on: SW-620 colon
HCC-2998 colon = tested on: HCC-2998 colon
SF-539 CNS = tested on: SF-539 CNS
A549 NSCLC = tested on: A549 NSCLC
SK-MEL-28 melanoma = tested on: SK-MEL-28 melanoma
SK-MEL-2 melanoma = tested on: SK-MEL-2 melanoma
ACHN renal = tested on: ACHN renal
MDA-MB-468 breast = tested on: MDA-MB-468 breast
HS 578T breast = tested on: HS 578T breast
K-562 leukemia = tested on: K-562 leukemia
MDA-MB-231 breast = tested on: MDA-MB-231 breast
MALME-3M melanoma = tested on: MALME-3M melanoma
UO-31 renal = tested on: UO-31 renal
UACC-257 melanoma = tested on: UACC-257 melanoma

COC(=O)C[C@](O)(CCC(C)C)C(=O)O[C@H]1C(OC)=C[C@@]23CCCN2CCc2cc4c(cc2[C@@H]13)OCO4
GI50 (NCI/ADR-RES ovarian): 1.5 µM
TGI (NCI/ADR-RES ovarian): 12 µM
TGI (786-0 renal): > 12.3 µM
TGI (SN12C renal): > 19.3 µM
TGI (SF-295 CNS): > 11.2 µM
TGI (NCI-H23 lung): > 9.5 µM
TGI (SNB-75 CNS): > 11 µM
GI50 (MOLT-4 leukemia): 10.5 µM
TGI (MOLT-4 leukemia): > 40.5 µM
GI50 (MCF7 breast): 1.37 µM
GI50 (NCI-H522 lung): 3.3 µM
TGI (NCI-H522 lung): > 8.77 µM
TGI (RPMI-8226 leukemia): > 8.64 µM
TGI (KM12 colon): > 15.6 µM
TGI (U251 CNS): > 11.9 µM
GI50 (HL-60(TB) leukemia): 2.4 µM
GI50 (HT29 colon): 4.69 µM
TGI (HT29 colon): > 14 µM
TGI (HOP-62 NSCLC): > 21.9 µM
TGI (IGROV1 ovarian): > 15.1 µM
TGI (PC-3 prostate): > 13.4 µM
TGI (SK-OV-3 ovarian): > 31 µM
TGI (A498 renal): > 9.75 µM
TGI (DU-145 prostate): > 13.8 µM
TGI (T-47D breast): > 22.9 µM
GI50 (HCT-116 colon): 16.8 µM
TGI (HCT-116 colon): > 40.5 µM
GI50 (RXF 393 renal): 2.65 µM
GI50 (HCT-15 colon): 4.08 µM
TGI (HCT-15 colon): > 9.64 µM
GI50 (NCI-H226 lung): 2.57 µM
TGI (NCI-H226 lung): > 10.2 µM
TGI (COLO 205 colon): > 13.8 µM
GI50 (SNB-19 CNS): 3.91 µM
TGI (SNB-19 CNS): > 10.2 µM
GI50 (SR leukemia): 17.1 µM
TGI (SR leukemia): > 40.5 µM
TGI (CAKI-1 renal): > 25.1 µM
TGI (MDA-MB-435): > 14.4 µM
GI50 (NCI-H460 lung): 1.51 µM
TGI (SF-268 CNS): > 19.6 µM
TGI (OVCAR-8 ovarian): > 13.8 µM
TGI (OVCAR-4 ovarian): > 15.5 µM
TGI (BT-549 breast): > 10.1 µM
GI50 (TK-10 renal): > 8 µM
TGI (TK-10 renal): > 37.1 µM
GI50 (CCRF-CEM leukemia): 4.62 µM
TGI (CCRF-CEM leukemia): > 11.2 µM
TGI (EKVX NSCLC): > 16.8 µM
TGI (UACC-62 melanoma): > 14.6 µM
GI50 (LOX IMVI melanoma): 2.54 µM
TGI (OVCAR-3 ovarian): > 12.9 µM
TGI (OVCAR-5 ovarian): > 15.7 µM
TGI (HOP-92 NSCLC): > 11 µM
TGI (SW-620 colon): > 16.5 µM
GI50 (HCC-2998 colon): 2.58 µM
GI50 (SF-539 CNS): 3.17 µM
TGI (SF-539 CNS): > 8.07 µM
TGI (A549 NSCLC): > 13.6 µM
TGI (SK-MEL-28 melanoma): > 10.6 µM
GI50 (SK-MEL-2 melanoma): 1.62 µM
TGI (SK-MEL-2 melanoma): 8.71 µM
GI50 (ACHN renal): 3.59 µM
TGI (ACHN renal): > 10.9 µM
GI50 (MDA-MB-468 breast): 1.8 µM
TGI (MDA-MB-468 breast): > 8.31 µM
TGI (HS 578T breast): > 11.1 µM
GI50 (K-562 leukemia): 2.73 µM
TGI (K-562 leukemia): > 40.5 µM
TGI (MDA-MB-231 breast): > 17.8 µM
GI50 (MALME-3M melanoma): 3.62 µM
TGI (MALME-3M melanoma): > 8.33 µM
TGI (UO-31 renal): > 14.8 µM
TGI (UACC-257 melanoma): > 12.7 µM
